# Measured values taken from patent US20120251495A1, “PTERIN BASED THERAPIES FOR INFLAMMATORY CONDITIONS” (priority 2008, published 2012).
# Columns and labels:
# Assay type in all cases: in vivo
# hepatitis B virus (HBV) [1] = test: Liver HBV DNA by quantitative PCR in HBV transgenic mice; conditions: female HBV mice; 10 mg/(kg d), per os 14 days
# hepatitis B virus (HBV) [2] = test: Liver HBV DNA by Southern blot hybridization in HBV transgenic mice; conditions: 10 mg/(kg d)
# Text: Animals. Homozygous adult female and male transgenic HBV mice were used (20.6±2.8 g). The mice were originally obtained from Dr. Frank Chisari (Scripps Research Institute, La Jolla, Calif.) (Guidotti L G, Matzke B, Schaller H & Chisari F V. High-level hepatitis B virus replication in transgenic mice. J Virol 1995; 69:6158-6169) and were subsequently raised in the Biosafety Level 3 (BL-3) area of the AAALAC-accredited USU Laboratory Animal Research Center (LARC). The animals were derived from founder 1.3.32 (Guidotti L G, Matzke B, Schaller H & Chisari F V. High-level hepatitis B virus replication in transgenic mice. J Virol 1995; 69:6158-6169). This study was conducted in accordance with the approval of the Institutional Animal Care and Use Committee of Utah State University.
# (§1) Experimental design. DCP was administered per os, once daily for 14 days to randomly assigned HBV transgenic mice at 23, 7.3, and 2.3 mg/(kg d). ADV was used as a positive control at 10 mg/(kg d) using the same treatment schedule and vehicle (0.4% CMC). On day 14, mice were euthanized to collect serum and liver samples to perform liver HBV DNA, liver core and serum HBe assays, serum cytokine/chemokine profiles, and IDO metabolite assays.
# Liver HBV DNA assays. Southern blot hybridization and quantitative PCR (qPCR) were performed on liver tissues (Morrey J D, Motter N E, Tam B, Lay M & Fairman J. Efficacy of cationic lipid-DNA complexes (CLDC) on hepatitis B virus in transgenic mice. Antiviral Res 2008; 79:71-79). For Southern blot hybridization, the ratio of the viral DNA bands to the transgene band was used to determine the concentration of viral DNA per host DNA. This calculation was based upon the knowledge that there were 1.3 copies of the transgene present per host cell with this line of transgenic mice. The transgene was used as an internal indicator to calculate the pg of HBV DNA per μg of homozygous cellular host DNA. For qPCR, the assay was run with a series of 10-fold dilutions of pooled liver DNA from HBV transgenic mice to obtain a standard curve. Mean C(t) values were obtained for duplicates of each sample. The mean C(t) values of each sample were used to obtain the log relative DNA values using a formula of the fit line of the standard curve.
# [3] = test system: hepatitis B core antigen (HBcAg); test: Liver HBcAg assay in HBV transgenic mice; conditions: 10 mg/(kg d)
# Experimental: as §1
# Liver HBcAg assay. Liver biopsies were processed for detection of hepatitis B core antigen (HBcAg) (Motley J D, Motter N E, Taro B, Lay M & Fairman J. Efficacy of cationic lipid-DNA complexes (CLDC) on hepatitis B virus in transgenic mice. Antiviral Res 2008; 79:71-79). Three different parameters were obtained from each tissue section. […] The first two parameters were obtained by counting cells surrounding central veins as follows: the total number of cells, the number of cells with stained nuclei, and the number of cells with stained cytoplasms. The identities of the samples were blinded to person counting. The stained nuclei counts or the stained cytoplasm counts were divided by the total cells. Three central vein areas were counted for each slide sample. For the third parameter, a field not in a central vein area was counted for the total number of stained nuclei. One-quarter of the field was counted. Three such fields were counted per liver section. The identity of the samples was blinded to the person reading the slides.
# HBe antigen = test: Sera HBeAg ELISA in HBV transgenic mice; conditions: females; 10 mg/(kg d)
# Experimental: as §1
# Sera HBeAg. Whole blood samples were obtained during necropsy by cardiac puncture, and processed for an HBeAg-specific ELISA (International Immuno Diagnostics, Foster City Calif.) (Money J D, Motter N E, Taro B, Lay M & Fairman J. Efficacy of cationic lipid-DNA complexes (CLDC) on hepatitis B virus in transgenic mice. Antiviral Res 2008; 79:71-79). Using the known PEI (Paul Ehrlich Institute) units for the calibrator, PEI units were formulated for the serial dilutions of the positive serum. A graph was generated, and extrapolation was used to assign a PEI unit value for each sample.
structure (smiles),measurement,setting,value
"CC(C)(C)C(=O)OCOP(=O)(COCCn1cnc2c(N)ncnc21)OCOC(=O)C(C)(C)C [Adefovir dipivoxil, adefovir dipivoxil, reference compound]",Log HBV DNA (PCR) versus controls,hepatitis B virus (HBV) [1],significant treatment decreases
same,"Liver HBV DNA (Southern), Female levels (mean ± SEM)",hepatitis B virus (HBV) [2]; female,3.5 ± 0.55 pg/µg
same,"Liver HBV DNA (Southern), Male levels (mean ± SEM)",hepatitis B virus (HBV) [2]; male,1.5 ± 0.37 pg/µg
same,"HBcAg Stained nuclei/total, Female levels (mean ± SEM)",[3]; female,27.7 ± 3.0
same,"HBcAg Stained nuclei/total, Male levels (mean ± SEM)",[3]; male,14.1 ± 3.5
same,HBe antigen (ELISA) versus controls,HBe antigen,significant increase
